Converted amounts (≈) assume the structure as drawn.
Key:
Format in all cases: in vivo
[1] = tested on: rice weevil (Sitophilus oryzae); conditions: adult rice weevil, fumigation 2 hours, about 24° C., 1-liter container
Source text: (§1) The poisoning ability index used in the following examples is the internationally commonly used median lethal concentration (LC50), which refers to a dosage required to kill 50% of a group of tested insects. The main test method is to include a number of tested insect (adults or larvae) and the examined chemical at a wide range of dosage in a 1-liter airtight transparent containers for a period of time. Afterward, the airtight containers were opened for ventilation, and the dead insects in the containers were counted. The linear regression between the mortality, expressed as probability unit, and the log dosage was analyzed using the software Priprobit v1.63, from which the value of LC50 could be obtained.
Put 30 adult insects of rice weevil (Sitophilus oryzae) into each of a group of 1-liter transparent containers, on which the name of tested chemical and the predetermined dosage are marked. Wherein, the chemicals to be tested include 2,5-dimethylfuran, 2,5-dimethylthiophene, 2-methylfuran, 2-methylthiophene, 2-ethylfuran and 2-ethylthiophene. The airtight containers, which contain the insect and chemical, are left at room temperature of about 24° C. for 2 hours. Afterward, the containers are opened for ventilation, and the dead rice weevils (Sitophilus oryzae) in each of the containers are counted. The linear regression between mortality and log dosage is analyzed using the software Priprobit v1.63, from which the lethal concentrations 50% (LC50) and 95% (LC95) are calculated.

[2] = tested on: diamondback moth (Plutella xylostella); test: Fumigant toxicity test (1), 2 h in 1-liter airtight container; conditions: fumigation 2 hours, ~24° C., 30 insects, doses 0-180 mg/dm^3
Source text: as §1
(§2) Take several 1-liter airtight transparent containers marked with different doses of 2,5-dimethylfuran, then put 30 insects into each of the transparent containers and add 2,5-dimethylfuran with marked doses (0, 18, 45, 90, 180 mg/dm^3), respectively, into each of the transparent containers. Place the containers at room temperature (˜24° C.) for 2 hours, and then quantitate the dead insects in each of the transparent containers. Wherein, the insects used include German cockroach (Blattella germanica), green peach aphid (Myzus persicae), brown planthopper (Nilaparvata lugens), diamondback moth (Plutella xylostella), rice weevil (Sitophilus oryzae), lesser grain borer (Rhyzopertha dominica), and sweet potato weevil (Cylas formicarius).

[3] = tested on: rice weevil (Sitophilus oryzae); test: as above; conditions: fumigation 2 hours, ~24° C., 30 insects, doses 0-180 mg/dm^3
Source text: as §1, §2

[4] = tested on: brown planthopper (Nilaparvata lugens); test: as above; conditions: fumigation 2 hours, ~24° C., 30 insects, doses 0-180 mg/dm^3
Source text: as §1, §2

[5] = tested on: lesser grain borer (Rhyzopertha dominica); test: as above; conditions: fumigation 2 hours, ~24° C., 30 insects, doses 0-180 mg/dm^3
Source text: as §1, §2

[6] = tested on: green peach aphid (Myzus persicae); test: as above; conditions: fumigation 2 hours, ~24° C., 30 insects, doses 0-180 mg/dm^3
Source text: as §1, §2

[7] = tested on: German cockroach (Blattella germanica); test: as above; conditions: fumigation 2 hours, ~24° C., 30 insects, doses 0-180 mg/dm^3
Source text: as §1, §2

Row | SMILES | LC95 [95% CI] [1] | also measured
1 | Cc1ccc(C)o1 [2,5-dimethylfuran] | 111.6 µg/mL (≈ 1160 µM) | administered dosage required to kill all the tested individuals [2]: 90 mg/L; administered dosage required to kill all the tested individuals [3]: 90 mg/L; administered dosage required to kill all the tested individuals [4]: 90 mg/L; administered dosage enough to kill all the tested individuals [5]: 18 mg/L; administered dosage enough to kill all the tested individuals [6]: 18 mg/L; administered dosage required to kill all the tested individuals [7]: 90 mg/L
2 | Cc1ccc(C)s1 [2,5-dimethylthiophene] | 135.3 µg/mL (≈ 1210 µM) | –
3 | Cc1cccs1 [2-methylthiophene] | 54.6 µg/mL (≈ 556 µM) | –
4 | CCc1ccco1 [2-ethylfuran] | 146.5 µg/mL (≈ 1520 µM) | –
5 | Cc1ccco1 [2-methylfuran] | 329.7 µg/mL (≈ 4020 µM) | –
6 | CCc1cccs1 [2-ethylthiophene] | 20.6 µg/mL (≈ 184 µM) | –
